Experimental data: patent US6936597B2, “Prodrugs of anticancer agents employing substituted aromatic acids” (priority 2001, dated 2005)

Tests used:
[1] = Half-life in rat plasma, measured by disappearance of PEG derivatives; assay type: in vitro ADME; conditions: 37° C., in duplicate, SD ±10%
[2] = system: P388/O (murine lymphoid neoplasm) cell line; test: In vitro bioassay, cell growth by Alamar Blue; assay type: cell-based; conditions: P388/O cells, three days, 37° C., in duplicate, SD ±10%
Protocol: A series of in vitro assays were conducted to determine the IC50 for unmodified Ara-C and compound 10 using the P388/O (murine lymphoid neoplasm, Southern Research Institute) cell line. The P388/0 cells were grown in RPMI 1640 medium (Whittaker Bioproducts, Walkersville, Md.)+10% FBS (Hyclone Inc., Logan Utah). Bioassays were performed in their respective media containing antibiotics and fungizone.
Ara-C was dissolved in DMSO and diluted to the appropriate concentration in culture media. The individual PEG-Ara-C compound was dissolved in water and diluted to the appropriate concentrations in culture media.
The assays were performed in duplicate in 96-well microtiter cell culture plates. Two fold serial dilution of the compounds were done in the microtiter plates. Cells were detached by incubating with 0.1% Trypsin/Versene at 37°. Trypsin was inactivated by adding the appropriate media for each cell line containing 10% FBS. To each well of the microtiter plates, 10,000 cells were added. After three days, cell growth was measured by addition of a metabolic indicator dye, Alamar Blue, according to the manufacturer's protocol. The IC50 value for the test compound and reference compound are provided above in the Table.

[3] = system: LX-1 (solid human lung Tumor); test: LX-1 tumor xenograft in athymic nude mice; assay type: in vivo; conditions: when control median tumor volume reached 1000 mm^3
Protocol: All PEG conjugated compounds were dissolved (˜15 mg/mL) in sterile saline (0.9%) for injection prior to in vivo drug treatments and were given as their ara-C equivalents (absolute amount of ara-C given).
Athymic nude mice were implanted subcutaneous with a 4-5 mm^3 tissue fragment of LX-1 (solid human lung Tumor) collected from donor mice. The tumor trocar site was observed twice weekly and measured once palpable. The tumor volume for each mouse was determined by measuring two dimensions with calipers and calculated using the formula: tumor volume=(length×width^2)/2. […] The mice were sorted to evenly distribute tumor size, grouped into 4 to 6 mice/group, and ear punched for permanent identification. Drugs were administered intravenously q3d×4 (Day 1, 4, 7 and 10) via the tail vein at an approximate rate of 0.5 mL per minute.

Row | Compound | t1/2 (h) Rat Plasma [1] [h] | IC50 [2] [nM] | % Tumor Growth Inhibition ([3]; 20 mg/kg (ara-C equivalents) i.v. q3d×4, LX-1 in nude mice) [%] | % Tumor Growth Inhibition ([3]; 100 mg/kg i.v. q3d×4, LX-1 in nude mice) [%]
1 | PEG ara-C 4-aminobenzenamide [Compound 6b] | 75 | 1190 | 12.3 | –
2 | Nc1ccn([C@@H]2O[C@H](CO)[C@@H](O)[C@@H]2O)c(=O)n1 [Ara-C, cytosine arabinoside, reference compound] | – | 10 | – | 26.2
3 | PEG ara-C 4-aminomethylbenzenamide [Compound 6a] | 65 | 122 | – | –
